pIC50: −log10 of the molar value.
Experiments:
[1] = system: MDA-MB-436 niraparib-resistant model; test: MDA-MB-436 niraparib-resistant CDX model in vivo; settings: azenosertib 80 mg/kg
Source text: MDA-MB-436 PARP inhibitor-resistant lines were generated by long-term in vitro treatment with a PARP inhibitor that is olaparib (Ola^R) or niraparib (Nir^R). Resistant cells were confirmed by sequencing to have BRCA1 reversion mutation. The parental MDA-MB-436 cell line remains sensitive to PARP inhibitors as expected (FIG. 5A), while the Nir^R (FIG. 5B) and Ola^R (FIG. 5C) MDA-MB-436 cell lines are no longer sensitive to PARP inhibitors but are sensitive to azenosertib. Azenosertib activity was further confirmed in the PARP inhibitor-resistant MDA-MB-436 CDX model in vivo. […] WEE1 inhibitor or PARP inhibitor treatment in the Parental TNBC animal model (without PARP inhibitor resistance) is shown in FIG. 5D.

[2] = system: MDA-MB-436 Nir^R (BRCA reversion) TNBC cell line; test: In vitro activity (IC50) in niraparib-resistant MDA-MB-436; format: cell-based; settings: Homo sapiens
Description: Cells with BRCA reversion mutations may be considered HRD+due to genome instability (such as TAI, LST, LOH). BRCA reversion mutation is an established mechanism of resistance to both platinum-based chemotherapeutic drugs and PARP inhibitors. In vivo exploration of WEE1 inhibitors (azenosertib, adavosertib) and PARP inhibitors (niraparib, olaparib) was evaluated.
MDA-MB-436 PARP inhibitor-resistant lines were generated by long-term in vitro treatment with a PARP inhibitor that is olaparib (Ola^R) or niraparib (Nir^R).

[3] = Body weight loss and clinical observations in ovarian PDX study; format: in vivo
Description: Relative Body Weight (RBW), individual body weight and mean body weight loss percent were calculated for each measurement by dividing the body weight by the body weight at the start of treatment as described in Example 3.

[4] = system: 22RV1 (prostate cancer cell line) subcutaneous xenografts; test: 22RV1 subcutaneous xenograft tumor growth inhibition; format: in vivo, CB17 SCID mice
Description: The prostate cancer cell line 22RV1 harbors a BRCA2 pathogenic mutation (HRD+). Briefly, 72 tumor-bearing mice were randomized and assigned into nine groups using a randomized block design based on their tumor volumes with eight mice per group. Each mouse was inoculated subcutaneously at the right flank with 22RV1 tumor cells in 0.2 mL mixture of Matrigel (5×10^6 cells/mouse). Treatments were started when the tumor size reached 199.94 mm^3 for tumor efficacy studies (Day 14 post inoculation). [table] Tumor size was measured twice weekly in two dimensions using caliper and expressed in mm3 using the formula: where a and b were long and short diameters of the tumor. The tumor size was used for calculations of T/C %. The T/C(%) was calculated according to the following formula: Two-way ANOVA followed by Bonferroni post-test was performed to compare tumor volumes among vehicle and other groups.

[5] = system: patient-derived ovarian xenograft (PDX) models (OVA2-BUR, CTG-0703, CTG-2213); test: Anti-tumor efficacy in ovarian PDX models; format: in vivo; settings: BRCA1 pathogenic mutant ovarian PDX vs BRCA1 WT / benign mutant; azenosertib 60 mg/kg, niraparib 35 mg/kg
Description: The OVA2-BUR model has an HRD negative/BRCA1 WT phenotype. Tumor growth inhibition was also measured using BRCA1^Glu1607Ter (pathogenic) mutant and BRCA1^Pro1099Leu (Benign) mutant PDX models.

[6] = azenosertib 60 mg/kg and/or niraparib 35 mg/kg p.o., (5 days on, 2 days off) × 4
[7] = azenosertib 60 mg/kg p.o. qd × 5 3 cycle
[8] = azenosertib 80 mg/kg p.o. qd × 5 3 cycle

C=CCn1c(=O)c2cnc(Nc3ccc(N4CCN(C)CC4)cc3)nc2n1-c1ccc2c(n1)[C@@](O)(CC)CC2 [Azenosertib, azenosertib]
tumor volume compared to the PARP inhibitor [1]: significant reduction in tumor volume
pIC50 [2]: 6.73
Max. individual BWL [3, 6]: 7.6%
Max. mean BWL [3, 6]: 0.7%
tolerability (body weight data and clinical observations) ([3]; azenosertib at 60 mg/kg, niraparib at 35 mg/kg, single agents or in combination): well tolerated
% TGI Day 5 [4, 7]: 54.08%
% TGI Day 8 [4, 7]: 32.68%
% TGI Day 12 [4, 7]: 44.02%
% TGI Day 15 [4, 7]: 26.61%
% TGI Day 19 [4, 7]: 14.55%
% TGI Day 5 [4, 8]: 38.26%
% TGI Day 8 [4, 8]: 23.80%
% TGI Day 12 [4, 8]: 26.16%
% TGI Day 15 [4, 8]: 19.47%
% TGI Day 19 [4, 8]: 38.13%
tumor growth inhibition in HRD+ model compared to BRCA1 WT or benign BRCA1 mutant models [5]: increased tumor growth inhibition

Source: patent publication US20260083742A1, “HOMOLOGOUS RECOMBINATION REPAIR DEFICIENCY (HRD) AS A PREDICTIVE BIOMARKER FOR TREATING CANCER WITH WEE1 INHIBITORS” (Zeno Management, Inc., priority 2023, published 2026)
